Consider 13 compounds from PubChem BioAssay (NCI).

SMILES strings stand for the structures.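 A five-concentration, 48-hour dose response in 96-well plates underlies each endpoint, interpolated linearly between surrounding concentrations. Here, GI50 denotes the concentration required for 50% inhibition of growth. TGI marks complete inhibition of growth.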

Among the test systems are HOP-92 NSCLC; NCI/ADR-RES ovarian; BT-549 breast; MDA-MB-231 breast; U251 CNS; SK-MEL-5 melanoma; SK-OV-3 ovarian; A498 renal; PC-3 prostate; CAKI-1 renal.
Common to all, as to assay: inhibition of tumour cell growth, NCI panel, 48 h

Regarding `Cc1cc(-c2nc3cc(F)ccc3s2)ccc1NC(=O)[C@@H](N)CCCCN`, the TGI amounted to 30.3 µM in the assay on HOP-92 NSCLC; 37.2 µM with NCI/ADR-RES ovarian; 26.9 µM with BT-549 breast; 10.5 µM in the assay on MDA-MB-231 breast; 3.89 µM in the assay with U251 CNS; 27.1 µM in the assay with SK-MEL-5 melanoma. Further, the TGI was determined as 25.7 µM with SK-OV-3 ovarian, 23.9 µM with A498 renal, 21.4 µM in the assay on PC-3 prostate and 20.3 µM with CAKI-1 renal.
For `CSCCC(N)C(=O)NCCNc1ccc(NCCNC(=O)C(N)CCSC)c2c1C(=O)c1ccccc1C2=O` (stereo not given), the TGI was determined as 3.4 µM in the assay on HOP-92 NSCLC; 16.2 µM with NCI/ADR-RES ovarian; 2.93 µM in the assay on BT-549 breast; 2.81 µM with MDA-MB-231 breast; 2.44 µM in the assay on U251 CNS; 13.2 µM in the assay on SK-MEL-5 melanoma. The TGI in the assay on SK-OV-3 ovarian was determined as 10.3 µM; in the assay on A498 renal it was 3.83 µM; in the assay with PC-3 prostate, 6.02 µM; with CAKI-1 renal, 7.25 µM.
In the case of `OCC(O)C(O)C(O)C(O)c1nc2ccc(Cl)cc2[nH]1` (stereo not given), the TGI in the assay with HOP-92 NSCLC, in the assay on NCI/ADR-RES ovarian, in the assay on BT-549 breast, in the assay with MDA-MB-231 breast, in the assay on U251 CNS and in the assay with SK-MEL-5 melanoma was more than 100 µM in each case. The TGI in the assay on SK-OV-3 ovarian, in the assay with A498 renal, in the assay with PC-3 prostate and in the assay with CAKI-1 renal was more than 100 µM in each case.
`O=C1C(Cl)=C(OCCCl)C(=O)c2c(O)ccc(O)c21`: the TGI in the assay with HOP-92 NSCLC came out at 3.12 µM; with NCI/ADR-RES ovarian it was 69.1 µM; in the assay on BT-549 breast it was 26.9 µM; in the assay with MDA-MB-231 breast, 10.6 µM; in the assay on U251 CNS, 27.9 µM; with SK-MEL-5 melanoma it was 6.91 µM. In addition, the TGI came out at 32.1 µM in the assay with SK-OV-3 ovarian, 34.8 µM in the assay on A498 renal, 26 µM with PC-3 prostate and 3.93 µM with CAKI-1 renal.
On to `Cc1cc(F)ccc1S(=O)(=O)Nc1cc(-c2c(O)ccc3ccccc23)c(O)c2ccccc12`, for which the GI50 in the assay on HOP-92 NSCLC was 0.292 µM; in the assay on NCI/ADR-RES ovarian it was 3.05 µM; in the assay on BT-549 breast, 3.04 µM; with MDA-MB-231 breast, 2.64 µM; in the assay on U251 CNS, 3.67 µM; with SK-MEL-5 melanoma, 1.77 µM. The GI50 in the assay with SK-OV-3 ovarian is 2.37 µM; in the assay on A498 renal, 3 µM; with PC-3 prostate it was 1.37 µM; in the assay on CAKI-1 renal it was 2.5 µM. Further, the TGI in the assay with HOP-92 NSCLC was determined as 2.82 µM; in the assay with NCI/ADR-RES ovarian, 13.6 µM; in the assay on BT-549 breast it was 10.8 µM; with MDA-MB-231 breast, 13.8 µM; with U251 CNS, 15.5 µM; with SK-MEL-5 melanoma, 3.52 µM. Besides, the TGI with SK-OV-3 ovarian is 11.6 µM; in the assay with A498 renal it was 9.75 µM; in the assay with PC-3 prostate, 5.12 µM; in the assay with CAKI-1 renal, 10.9 µM.
Consider `CC(NC(=O)C(NC(=O)CNC(=O)OC(C)(C)C)C(C)C)C(=O)Oc1c(Cl)c(Cl)c(Cl)c(Cl)c1Cl` (stereo not given), for which the TGI with HOP-92 NSCLC worked out at 41.3 µM; with NCI/ADR-RES ovarian, 39.1 µM; in the assay on BT-549 breast, 51.2 µM; in the assay on MDA-MB-231 breast, 42 µM; in the assay with U251 CNS, 48.3 µM; in the assay with SK-MEL-5 melanoma it was 33.9 µM. Also, the TGI in the assay on SK-OV-3 ovarian came out at 51.5 µM; with A498 renal, 45 µM; with PC-3 prostate, 32.1 µM; in the assay with CAKI-1 renal, 39.3 µM.
Take `COc1ccc(CC(N)c2ccc(OC)cc2)cc1` (stereo not given): the TGI in the assay with HOP-92 NSCLC, in the assay on NCI/ADR-RES ovarian, in the assay on BT-549 breast, with MDA-MB-231 breast, with U251 CNS and with SK-MEL-5 melanoma was more than 100 µM in each case. Further, the TGI in the assay with SK-OV-3 ovarian, in the assay on A498 renal, with PC-3 prostate and with CAKI-1 renal was more than 100 µM in each case.
On to `CSCSSC`, for which the TGI in the assay on HOP-92 NSCLC, in the assay with NCI/ADR-RES ovarian, in the assay on BT-549 breast, with MDA-MB-231 breast, in the assay with U251 CNS and in the assay on SK-MEL-5 melanoma was more than 100 µM throughout. For the same compound, the TGI in the assay on SK-OV-3 ovarian, in the assay with A498 renal, in the assay with PC-3 prostate and in the assay on CAKI-1 renal was more than 100 µM throughout.
Regarding `Cc1csc(NC23CC4CC(CC(C4)C2)C3)[n+]1C(P(=O)([O-])O)P(=O)(O)O` (stereo not given), the TGI in the assay on HOP-92 NSCLC, with NCI/ADR-RES ovarian, in the assay with BT-549 breast, in the assay on MDA-MB-231 breast, in the assay on U251 CNS and with SK-MEL-5 melanoma was more than 100 µM in each case. Also, the TGI with SK-OV-3 ovarian, with A498 renal, with PC-3 prostate and with CAKI-1 renal was more than 100 µM in each case.
As to `CCCCCCCC/C=C\CCCCCCC/C=C1\C[C@](/C=C/C(=O)OC)(CO)OC1=O`, the TGI in the assay with HOP-92 NSCLC was determined as 21.1 µM; in the assay on NCI/ADR-RES ovarian, 14.6 µM; in the assay on BT-549 breast, 7.15 µM; with MDA-MB-231 breast, 6.6 µM; in the assay with U251 CNS, 5.92 µM; in the assay with SK-MEL-5 melanoma, 16.8 µM. The TGI in the assay with SK-OV-3 ovarian was found to be 19.1 µM; in the assay with A498 renal, 22.7 µM; in the assay with PC-3 prostate, 6.96 µM; in the assay on CAKI-1 renal it was 4.15 µM.
As to `N#CC1(C#N)NC(c2cccs2)C(C#N)(C#N)NC1c1cccs1` (stereo not given), the TGI was 78.7 µM in the assay with HOP-92 NSCLC; more than 100 µM with NCI/ADR-RES ovarian; 57.4 µM with BT-549 breast; more than 100 µM in the assay on MDA-MB-231 breast; 64.5 µM with U251 CNS; 74.2 µM in the assay on SK-MEL-5 melanoma. Also, the TGI was more than 100 µM with SK-OV-3 ovarian, 74.6 µM in the assay on A498 renal, more than 100 µM with PC-3 prostate and more than 100 µM with CAKI-1 renal.
Regarding `COC(OC)[C@@H]1OC[C@H](n2cnc3c(N)ncnc32)[C@H]1O`, the TGI in the assay with HOP-92 NSCLC, with NCI/ADR-RES ovarian, with BT-549 breast, with MDA-MB-231 breast, with U251 CNS and in the assay on SK-MEL-5 melanoma was more than 100 µM in each case. Moreover, the TGI in the assay on SK-OV-3 ovarian, in the assay with A498 renal, with PC-3 prostate and with CAKI-1 renal was more than 100 µM in each case.
Turning to `CCCCOC(=O)C(NC(C(=O)OCCCC)c1cc(C(C)(C)C)c(O)c(C(C)(C)C)c1)c1cc(C(C)(C)C)c(O)c(C(C)(C)C)c1` (stereo not given), the TGI with HOP-92 NSCLC, with NCI/ADR-RES ovarian, with BT-549 breast, with MDA-MB-231 breast, with U251 CNS and with SK-MEL-5 melanoma was more than 100 µM in each case. Besides, the TGI in the assay with SK-OV-3 ovarian, in the assay on A498 renal, with PC-3 prostate and in the assay on CAKI-1 renal was more than 100 µM throughout.
